Reference: patent US7893070B2, “Method of treating parturient placental mammals in order to reduce maternal and/or uterine exhaustion” (priority 2005, dated 2011)

Assays:
sows [1] = conditions: intravenous injection of 0.5 mg/50 kg bodyweight, cited from earlier work
sows [2] = test: Caffeine suppository to sows after birth of first piglet; indices of piglet health and birth interval; type: in vivo, swine
Excerpt: In commercial swine production, typically 8% of the fetuses are stillborn, and 12% of the newborn piglets die prior to weaning (SIVA, 2005). Oxygen deprivation during the birth process is an important causal factor for both stillbirths and neonatal mortality. An indicator for oxygen deprivation is umbilical (blood) pH. This pH is typically 7.4, but upon oxygen deprivation CO2 accumulates in the blood and tissues resulting in a drop in pH. If this drop is severe enough, it will result in the death of the fetus. A moderate drop in pH may not be lethal but may inflict sufficient metabolic damage such that it affects the health and fitness of the newborn and thus its chances of survival. Measurements of umbilical (blood) pH confirmed that this pH drops as the length of parturition increases. Previous work by Randall (1971) has shown a good correlation between umbilical pH and livability of piglets (FIG. 1).
Infrared radiation temperature is another indicator of metabolic health of a mammal. A strong correlation between infrared temperature and survival chances for newborn pigs has been shown. This infrared temperature was obtained by collecting piglets at birth, immediately drying them, and measuring infrared temperature. In a first experiment, 7 sows received a caffeine-comprising suppository (1-2 mg/kg BW, or 400-600 mg) after the birth of the first piglet in a litter. The indices of piglet health as described here above were compared to those of a control group of 6 sows. […] (P=0.04).

sows [3] = test: 400 mg caffeine oral paste to sows after birth of first piglet; duration of parturition; type: in vivo, swine; conditions: 400 mg oral paste; controls 159 minutes
Procedure: In a second experiment, 19 sows received 400 mg of caffeine comprised in a paste for oral ingestion, in accordance with the invention, after the birth of the first piglet while 19 sows served as untreated controls.
Practically, some untreated animals delivered their litter expediently and with few problems, but there were a substantial number of mothers for whom parturition became a lengthy process.

[4] = Uptake of caffeine into blood (serum) of pregnant sows
Procedure: Blood samples were collected pre-administration and at multiple time points post administration through an ear-vein catheter such that the uptake of caffeine into the blood (serum) could be modelled. Besides the caffeine level, the levels of its main metabolites paraxanthine, theophylline, and theobromine were determined.
This pool was not modelled.

sows [5] = test: 900 mg caffeine oral paste, Velddriel research station; stillbirth and piglet mortality; type: in vivo, swine; conditions: 900 mg oral paste
Procedure: The method of treatment according to the present invention was further tested at the Provimi research station in Velddriel, the Netherlands, in three farrowing groups. In the Velddriel facility farrowings are not attended by (veterinary) personnel and parturition is thus not actively managed. Stillbirth and mortality rates are thus in line with commercial practices.
Sows were assigned to treatment based on parity. Overall, 27 sows served as controls and 29 were treated in accordance with the present invention when they were expected to farrow in the next 8 hours. Treated sows were administered 900 mg of caffeine comprised in a paste for oral ingestion, in accordance with the invention.

[6] = Transfer of caffeine from the mother to piglets (blood at birth) and colostrum; type: in vivo, swine; conditions: 900 mg oral paste to sow; same time-point
Excerpt: In order to assess whether caffeine was transferred from the mother to the piglets, blood samples were collected from several piglets at the time of birth and samples from colostrum were taken. […] The concentrations found were dependent on the time relative to dosing the treatment composition. For piglets at birth, they were roughly ¼^th the concentration in the mother at that time-point, and in milk they were roughly ⅙^th the concentration in the mother at that time-point. Values observed were in the range of 0.1 to 1.5 mg/L.

sows [7] = test: 900 mg caffeine oral paste, actively managed farm in Bieganow; type: in vivo, swine; conditions: for increase in feed consumption of sows: vs control
Procedure: The method of treatment according to the present invention was further tested at a well-managed farm in Bieganow, Poland. In this facility farrowings are attended by (veterinary) personnel and parturition is actively managed. As a result, stillbirth rates are extremely low (0.33 piglets per litter or 3% of the piglets).
At this farm, 89 sows comprising one farrowing group were available for the test. These sows were assigned to receive either a 900 mg of caffeine containing paste in accordance with the invention or no treatment, based on parity, body condition, and historical performance. The treatment composition was administered orally to selected sows when they were expected to farrow in the next 8 hours.

SMILES	stillbirth rate (sows [1]; reduced from 8.3)	rate of deliveries lasting more than six hours (sows [1]; reduced from 14.5)	increase of piglet umbilical (blood) pH (sows [2]; suppository 1-2 mg/kg BW (400-600 mg) vs control sows, P=0.03)	increase of piglet infrared radiation temperature (sows [2]; suppository 1-2 mg/kg BW (400-600 mg) vs control sows, P=0.04)	numerical increase of birth interval between subsequent piglets (sows [2]; suppository, P=0.11 (control 9 minutes, P<0.01))	mean time interval between the birth of the first and 10th piglet (sows [3])	half-life ([4]; female, pig, in vivo)	peak blood concentration, second compartment ([4]; pregnant sows, 940 mg of caffeine administered (half that for the 470 mg dose))	time of peak blood concentration, second compartment ([4]; pregnant sows, post administration)	bio-availability ([4]; pregnant sows, assuming caffeine distributed in 60% of body mass)	stillborn piglets per litter (sows [5]; expected to farrow in next 8 hours, control 0.89)	piglets died or euthanized for being weak after parturition (sows [5]; control 1.15)	caffeine concentration in milk relative to the concentration in the mother [6]	caffeine concentration in piglets at birth relative to the concentration in the mother [6]	difference in stillbirths between treatment groups (sows [7]; 900 mg oral paste vs no treatment)	assistance rate (sows [7]; 900 mg oral paste, control group 26%)	sows requiring medical care post-farrowing (sows [7]; 900 mg oral paste, control group seven sows (one died))	increase in feed consumption of sows (sows [7]; first day post farrowing)	increase in feed consumption of sows (sows [7]; first five days post farrowing)	piglets heavier than controls at weaning (sows [7]; piglets from treated sows)
CC(C)NCC(O)COc1cccc2[nH]c3ccccc3c12 (centres unmarked) [carazolol]	7.1%	11.0%																		
Cn1c(=O)c2c(ncn2C)n(C)c1=O [caffeine]			0.044±0.020 units	0.60±0.29 °C	3.6 minutes for each hour into parturition	110 min	~1320 min	~5 µM	8 h	44%	0.31 piglets per litter	0.48 piglets per litter	roughly ⅙	roughly ¼	no statistically significant differences	18%	no sows required medical care	14%	10%	9%
